Each block holds one compound with its values, some of them ahead of it.
Tests used:
[1] = system: hydrolyzed whey protein isolate; experiment: NR-Cl binding to hydrolyzed whey protein isolate (10 kDa cutoff filtration, unbound NR-Cl in filtrate by HPLC); conditions: hydrolyzed whey protein isolate solutions, ambient and refrigerated
Description: A. Solutions of hydrolyzed whey protein isolate (>90% protein, 2-7% degree of hydrolysis) were prepared at varying concentrations and filtered through 0.2 μm sterile filters. An aliquot of sterile nicotinamide riboside chloride (“NR-Cl,” a salt of NR, I) in water solution was spiked into the sterile whey solutions, targeting a final NR-Cl concentration of 1 mmol per liter (0.3 mg/mL). The solutions containing the mixture of hydrolyzed whey and NR-Cl were filtered through 10 kDa molecular weight cutoff centrifuge filters to remove the whey proteins (14-80 kDa) and any NR-Cl that was bound to the proteins. Any NR-Cl that was not bound to the whey proteins was recovered in the filtrate and quantitated by HPLC.
The solutions of hydrolyzed whey protein isolate and NR-Cl were stored at ambient and refrigerated conditions and analyzed at various timepoints for NR-Cl protein binding and stability.
A study measuring the stability of NR-Cl in hydrolyzed and non-hydrolyzed whey protein was conducted with 2 mmol/L NR-Cl (0.6 mg/mL) and 20 mg/mL protein (33.3:1 wt:wt protein:NR-Cl). […] (See Table 5).

[2] = Degradation tracking of 15N NR-Cl to 15N nicotinamide by 15N-1H HMBC and 1H NMR, with or without whey protein; format: physicochemical
Description: A series of 1D ^1H and 1D ^15N-^1H HMBC experiments were collected on a 600 MHz Bruker instrument with 5-mm cryoprobe and using 5-mm NMR tubes. Each sample contains ˜10 mM ^15N isotope labeled NR-Cl (or non-isotope), in a solution containing ˜0.5 mL 90% H2O/10% ^2H2O buffered at pH values of 7.0 (5 mM PBS) and 9.0 (50 mM Glycine/Sodium hydroxide), with or without whey protein. The NMR tube was incubated at 25° C. and data collected at 1, 3 and 7 days. The NMR results provided evidence of binding to milk and soy protein and provided evidence of increased stability in combination with Whey protein at different pH over a 7 day time-course.
FIG. 22 highlights the corresponding ^1H-NMR data for the increased stability of the NR-Cl at day 7 under pH 7 and 9 buffered conditions, compared to control.
The integrations for the peaks corresponding to ^15N NR-Cl and ^15N nicotinamide were measured for the degradation that had occurred to ^15N—NR-Cl from Day 1 to Day 7. […] The half-life for ^15N NR-Cl in buffered pH 9 conditions- improved from 2.7 days (control) to 10 days in the presence of Whey protein.

milk proteins = experiment: WaterLOGSY NMR, direct binding of 15N-labeled NR to milk proteins; conditions: no milk, 150 μL and 300 μL of milk
Excerpt: Whey protein fraction and casein protein have been identified as leading candidates to bind directly to and stabilize nicotinamide riboside (NR, I) in milk. The addition of these proteins in particular (either alone or in combination with other proteins and/or vitamins) in order to stabilize nicotinamide riboside (NR, I) in liquid constitutes another embodiment of a method of delivery of the present invention. […] In this experiment, Water-Ligand Observed via Gradient Spectroscopy (WaterLOGSY NMR) was used to detect direct binding of stable, isotope-labeled (^15N) nicotinamide riboside (NR, I) to milk proteins. This is visualized as a concentration-dependent shift in the nicotinamide riboside (NR, I) spectra with increasing additions of milk. The concentric shapes shifts from left to right are the results of addition of no milk, 150 μL of milk, and 300 μL of milk, respectively.

[3] = Recovery of NR added to store bought (cow) milk, HILIC/HPLC/UV; format: physicochemical; conditions: cow's milk and human breast milk
Description: Nicotinamide riboside (NR, I) is also naturally found in milk. […] FIGS. 2B and 2C are control chromatograms showing detection of nicotinamide riboside (NR, I) after adding nicotinamide riboside (NR, I) to the milk sample at a known amount. […] The calculated recovery of the 1% nicotinamide riboside (NR, I) was close to 100%. […] Centrifugation was then performed to remove any precipitate, and the supernatant was analyzed using an HILIC/HPLC/UV using standard methods.

[4] = mice on a high-fat diet supplemented with NR; cited from earlier work
[5] = system: protein components of a meal replacement beverage; experiment: WaterLOGSY NMR binding of NR-Cl; conditions: meal replacement beverage containing soy protein isolate and milk protein concentrate
Description: (§1) WaterLOGSY is a sensitive ligand-observed NMR experiment designed for the screening of protein ligands from a mixture of potential binders. […] The experiment relies on fast dissociation of bound ligands to carry into the free state magnetisation originating from irradiated water that has been transmitted via the protein complex.
(§2) NMR samples for WaterLOGSY were prepared as follows. Ligand-detect WaterLOGSY experiments were carried at 600 MHz with 5-mm cryoprobe and using 5-mm NMR tubes. Each NMR sample for WaterLOGSY contained ˜0.05 mg (˜0.35 mM), using unlabeled ligand NR-Cl (“NR”), in a NMR buffer containing ˜0.5 mL 90% H2O/10% ^2H2O at pH 7.0 with or without the milk and soy protein mix (compared to the WaterLOGSY of NR as a negative control). Protein was added as a powder with a minimal 15 to 50 μM concentration. Typically, the final NMR sample of protein-compound mixtures had >20-fold higher compound concentration of ligand compared to that of the protein. Denatured samples were prepared by simply heating (80° C. for 15-20 mins) the aqueous (5-10% ^2H2O) protein mixture (in absence of NR).
The beverage that was tested contained soy protein isolate and milk protein concentrate and it could only be either of these ingredients that could contribute to the positive result that was observed. […]

[6] = system: milk concentrate proteins; experiment: WaterLOGSY NMR binding of NR-Cl; conditions: milk concentrate, pH 7.0
Description: as §1, §2
The NR only WaterLOGSY spectrum (FIG. 23) was the negative control to screen for any potential binding of NR-Cl to milk concentrate and soy isolate proteins as shown herein and discussed below.

binding to whey [1]: not observed to bind
SMILES: NC(=O)c1cccnc1 [nicotinamide]

half-life ([2]; PBS buffer with whey protein, buffered pH 7, 25° C., in the presence of Whey protein): 28 days
half-life ([2]; PBS buffer without whey protein (control), buffered pH 7, 25° C., control (without Whey protein)): 3.4 days
half-life ([2]; buffered pH 9, 25° C., control (without Whey protein)): 2.7 days
half-life ([2]; glycine/sodium hydroxide buffer with whey protein, buffered pH 9, 25° C., in the presence of Whey protein): 10 days
rate of degradation in the presence of Whey protein ([2]; pH 7.0 and 9.0, days 1, 3 and 7): slower than the control
SMILES: NC(=O)c1ccc[15n+]([C@@H]2O[C@H](CO)[C@@H](O)[C@H]2O)c1 [^15N NR-Cl, ^15N-labeled nicotinamide riboside chloride]

SMILES: NC(=O)c1ccc[n+]([C@@H]2O[C@H](CO)[C@@H](O)[C@H]2O)c1 [NR, Nicotinamide riboside]
direct binding to milk proteins (WaterLOGSY, concentration-dependent shift) (milk proteins): binds to proteins in milk
stability in milk [3]: stable in milk
less weight gained [4]: 40%
WaterLOGSY binding [5]: strongest evidence of NR binding
WaterLOGSY binding [6]: comparatively weaker binding
